The experiment addresses Lysine-specific demethylase 4C (Homo sapiens) (UniProt Q9H3R0). Description: inhibition of JMJD2C H3K9me3 demethylation – biochemical, DELFIA europium, cherry-picked samples, dose response (AID 488835).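 Note: signal is the H3K9me2 demethylation product detected by a dimethyl-specific antibody.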 Conditions: GST-JMJD2C(1-420).

Sequence of Lysine-specific demethylase 4C (Homo sapiens) (Q9H3R0 1-420 limits assumed): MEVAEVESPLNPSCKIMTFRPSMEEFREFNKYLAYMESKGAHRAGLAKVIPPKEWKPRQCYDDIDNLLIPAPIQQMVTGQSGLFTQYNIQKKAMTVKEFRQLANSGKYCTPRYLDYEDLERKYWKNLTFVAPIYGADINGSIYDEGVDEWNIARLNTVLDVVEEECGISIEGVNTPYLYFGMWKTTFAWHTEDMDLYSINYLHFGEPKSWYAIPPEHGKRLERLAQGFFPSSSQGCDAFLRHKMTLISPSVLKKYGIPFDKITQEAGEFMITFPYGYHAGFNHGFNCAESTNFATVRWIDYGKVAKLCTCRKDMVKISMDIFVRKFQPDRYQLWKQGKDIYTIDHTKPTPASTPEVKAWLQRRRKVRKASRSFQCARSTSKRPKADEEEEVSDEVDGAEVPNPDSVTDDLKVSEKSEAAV

As to `C#CCOCCOCCOCCNc1nc(N2CCN(C(=O)CCCCCCCCCCNC(=O)[C@H]([C@@H](C)CC)n3cc(CCCCN=C(N)N)nn3)CC2)nc(N2CCN(C(=O)CCCCCCCCCCNC(=O)[C@H](CCCCN)n3cc(C)nn3)CC2)n1`, the AC50 (in general, the concentration at which the activity in the assay is half-maximal) is 6.07 µM.

These data come from PubChem BioAssay AID488835 (Broad Institute, 2010).
